Drawing on publication PMC3493702 (Cornea, 2013), this text covers Papp and Ptot for 2 compounds.

Structures are written as SMILES.

One data set is described as follows: in vitro. As to conditions: rabbit, Ptot (apparent permeability coefficient) [corneal permeability].
The conditions of data set [1]: corneal permeability, literature value; cited from earlier work.

For `CC(CO)(CO)[N+](=O)[O-]` [MNPD, 2-methyl-2-nitro-1,3-propanediol], the Papp at 120 min, 100 mM in “in vitro” is 4.37 ×10⁻⁶ cm/s. Consider `OC[C@@H](O)[C@@H](O)[C@H](O)[C@H](O)CO` [mannitol], for which the Ptot in data set [1] is 2.4 ×10⁻⁶ cm/s.
